From patent US20210283107A1, “Methods to Expand the Spectrum of Gram-Positive Antibiotics” (NORTH CAROLINA STATE UNIVERSITY, priority 2016, published 2021) come the findings set out here.

For test [1], the system named is A. baumannii mutant AB522. The test is described as follows: MIC against Tn-seq transposon mutant AB522. It is filed as cell-based. To be noted: Acinetobacter baumannii. Here is the method:
(§1) During individual MIC screening, two mutants, AB522 and AB1310, were identified due to their increased sensitivity to the three macrolide antibiotics and vancomycin when compared to AB 5075 (Table 17).
(§2) Day Cultures (6 h) were subcultured to 5×10^5 CFU/mL in cation adjusted Mueller-Hinton broth (CAMHB). Aliquots (1 mL) were placed in culture tubes, and compound was added from 100 mM stock solutions, such that the compound concentration equaled the highest concentration tested (200 μM or 64 μg/mL). Samples were then aliquoted (200 μL) into the first row of wells of a 96-well plate, with all remaining wells being filled with 100 μL of initial bacterial subculture. The wells in row one were mixed five times before 100 μL was transferred to the following row (row two). Row two was then mixed five times, and 100 μL was transferred to row three. This processed was repeated until the final row had been mixed. This process provided a serial dilution of the compound. Plates were covered with Glad Press n'Seal and were incubated under stationary conditions at 37° C. for 16 hours. MIC values were recorded as the lowest concentration at which no bacterial growth was observed.

Test [2] concerns A. baumannii mutant AB1310. The test is described as follows: MIC against Tn-seq transposon mutant AB1310. It is filed as cell-based. The following applies: Acinetobacter baumannii. Here is the method:
as §1, §2

Another test concerns AB5075. The experiment in a line: G. mellonella model infected with AB5075, survival. It is filed as in vivo, Galleria mellonella. The protocol: Galleria mellonella larvae (Speedy Worm, Alexandria, Minn.) were used within ten days of shipment from the vendor. After reception of worms, larvae were kept in the dark at room temperature for at least 24 h before infection. Larvae weighing between 200 to 300 mg were used in the survival assay. Using a 10 μL glass syringe (Hamilton, Reno, Nev.) fitted with a 30 G needle (Exel International, St. Petersburg, Fl), 5 μL of the desired compound and concentration were injected into the last left proleg. After 2.5 h, a second 5 μL injection containing 6×10^5 CFU of Acinetobacter baumannii 5075 was injected into the second to last left proleg. Injected worms were left at room temperature in the dark while being assessed at 24 h intervals over 6 days. […] Experiment was repeated 7 times using 10 larvae per experimental group.

A further test concerns A. baumannii strain 3785. The test is described as follows: Potentiation of clarithromycin and vancomycin against clinical isolate. It is filed as cell-based, Acinetobacter baumannii. The following applies: antibiotic alone. Here is the method: (§3) As previously stated, A. baumannii 5075 was chosen for these studies due to its virulence and multidrug resistance, but to further analyze the activity of our lead compounds, 23 A. baumannii clinical isolates obtained from Walter Reed Army Institute of Research (WRAIR) were tested.
(§4) Day Cultures (6 h) were subcultured to 5×10^5 CFU/mL in cation adjusted Mueller-Hinton broth (CAMHB). […] One milliliter of the resulting solution was aliquoted into a separate culture tube and was dosed with antibiotic so that the resulting concentration was the highest desirable concentration to be tested. Bacteria treated with antibiotic alone were used as a control. Row one of a 96-well plate was filled with 200 μL of the antibiotic/compound solution, and the remaining rows were filled with 100 μL of the remaining 4 mL bacterial subculture. The wells in row one were mixed five times before 100 μL was transferred to the following row (row two). Row two was then mixed five times, and 100 μL was transferred to row three. This process was repeated until the second to last row had been reached. The last row is left unexposed to antibiotic in order to serve as a negative control. The antibiotic only treated bacteria was plated by aliquoting 200 μL of the treated bacteria into row one and filling the remaining rows with untreated bacteria from the original bacteria subculture. The rows were mixed in the same way as described above. Plates were covered with Glad Press n'Seal and were incubated under stationary conditions at 37° C. for 16 hours. MIC values were recorded as the lowest concentration at which no bacterial growth was observed. Fold reductions were determined by comparison of the compound treated wells with the antibiotic only treated control wells.

The subject of a further test is A. baumannii strain 3806. The test is described as above. The following applies: antibiotic alone. It is filed as cell-based, Acinetobacter baumannii. The protocol:
as §3, §4

For the next test, the system named is A. baumannii strain 4025. The description is as above. It is filed as cell-based, Acinetobacter baumannii. To be noted: antibiotic alone. The protocol:
as §3, §4

Another test deals with A. baumannii strain 4026. The test is described as above. The following applies: antibiotic alone. It is filed as cell-based, Acinetobacter baumannii. Here is the method: as §3, §4
The test system of the next test is A. baumannii strain 4027. Described as above. It is filed as cell-based, Acinetobacter baumannii. The following applies: antibiotic alone. Here is the method:
as §3, §4

Another test has as its system A. baumannii strain 4498. Described as above. To be noted: antibiotic alone. It is filed as cell-based, Acinetobacter baumannii. The protocol: as §3, §4
A further test deals with A. baumannii strain 4857. The description is as above. It is filed as cell-based, Acinetobacter baumannii. The following applies: antibiotic alone. The protocol: as §3, §4
The next test concerns A. baumannii strain 5197. Described as above. To be noted: antibiotic alone. It is filed as cell-based, Acinetobacter baumannii. Here is the method:
as §3, §4

The next test relates to A. baumannii strain 5711. Described as above. To be noted: antibiotic alone. It is filed as cell-based, Acinetobacter baumannii. The protocol:
as §3, §4

The subject of the next test is A. baumannii strain 8967. Described as above. It is filed as cell-based, Acinetobacter baumannii. The following applies: antibiotic alone. Here is the method: as §3, §4
Test [3] deals with A. baumannii strain 5075 (AB5075). The experiment in a line: Macrolide sensitization / antibiotic resensitization: antibiotic MIC in presence of compound (broth microdilution). The following applies: Acinetobacter baumannii, read-out: MIC (μg/mL) of the antibiotic. It is filed as cell-based, Acinetobacter baumannii. The protocol: A. baumannii 5075 was plated on LB agar, then grown in CAMHB for 6-8 h and this culture was used to inoculate fresh CAMHB (5×10^5 CFU/mL). The resulting suspension was aliquoted (5 mL) into culture tubes and compound, from 100 mM DMSO stock, was added. One aliquot was not treated (control). 1 mL of each sample was transferred to a new culture tube and antibiotic was added. Rows 2-12 of a 96-well microtiter plate were filled with 100 μL/well from the remaining 4 mL bacterial subcultures, allowing the concentration of compound to be kept uniform throughout the antibiotic dilution procedure. Samples containing antibiotic were aliquoted (200 μL) into the corresponding first row wells of the microtiter plate. Row 1 wells were mixed 6 to 8 times then 100 μL was withdrawn and transferred to row 2. Row 2 wells were mixed 6 to 8 times, followed by a 100 μL transfer from row 2 to row 3. This procedure was repeated to serially dilute the rest of the rows of the microtiter plate, with the exception of the final row, to which no antibiotic was added (to check for growth of bacteria in the presence of compound alone). The microtiter plate was then covered, placed in a covered damp plastic container and incubated under stationary conditions at 37° C. After 16-18 hrs minimum inhibitory concentration (MIC) values were recorded as the lowest concentration of antibiotic at which there was no visible growth of bacteria. Experiments were carried out in duplicate each time and repeated at least twice.
The difference in antibiotic MIC between the control (no compound) sample, and the samples containing each compound was recorded as the fold-reduction.
as §4

For a further test, the system named is A. baumannii strain 3560. The test is described as follows: Potentiation of clarithromycin and vancomycin against clinical isolate. It is filed as cell-based, Acinetobacter baumannii. The following applies: antibiotic alone. Here is the method: as §3, §4
The next test concerns A. baumannii strain 3927. The description is as above. It is filed as cell-based, Acinetobacter baumannii. To be noted: antibiotic alone. The protocol:
as §3, §4

Another test deals with A. baumannii strain 4052. The test is described as above. It is filed as cell-based, Acinetobacter baumannii. The following applies: antibiotic alone. Here is the method:
as §3, §4

For a further test, the system named is A. baumannii strain 4269. The description is as above. The following applies: antibiotic alone. It is filed as cell-based, Acinetobacter baumannii. Here is the method:
as §3, §4

The subject of the next test is A. baumannii strain 4448. The test is described as above. It is filed as cell-based, Acinetobacter baumannii. The following applies: antibiotic alone. The protocol:
as §3, §4

The test system of another test is A. baumannii strain 4456. The test is described as above. It is filed as cell-based, Acinetobacter baumannii. To be noted: antibiotic alone. Here is the method:
as §3, §4

In a further test the test system is A. baumannii strain 4490. The description is as above. It is filed as cell-based, Acinetobacter baumannii. The following applies: antibiotic alone. Here is the method:
as §3, §4

Another test relates to A. baumannii strain 4795. The description is as above. It is filed as cell-based, Acinetobacter baumannii. The following applies: antibiotic alone. Here is the method: as §3, §4
Another test concerns A. baumannii strain 4878. The test is described as above. It is filed as cell-based, Acinetobacter baumannii. The following applies: antibiotic alone. Here is the method:
as §3, §4

In a further test the test system is A. baumannii strain 4957. Described as above. It is filed as cell-based, Acinetobacter baumannii. The following applies: antibiotic alone. The protocol: as §3, §4
In another test the test system is A. baumannii strain 4991. The test is described as above. It is filed as cell-based, Acinetobacter baumannii. The following applies: antibiotic alone. The protocol: as §3, §4
The test system of another test is A. baumannii strain 5001. The description is as above. To be noted: antibiotic alone. It is filed as cell-based, Acinetobacter baumannii. Here is the method:
as §3, §4

The next test deals with A. baumannii strain 5256. The description is as above. It is filed as cell-based, Acinetobacter baumannii. To be noted: antibiotic alone. Here is the method:
as §3, §4

The structures appear in SMILES notation. ≈ marks a conversion by molar mass, not a printed value.

On to `CC[C@H]1OC(=O)[C@H](C)[C@@H](O[C@H]2C[C@@](C)(OC)[C@@H](O)[C@H](C)O2)[C@H](C)[C@@H](O[C@@H]2O[C@H](C)C[C@H](N(C)C)[C@H]2O)[C@](C)(OC)C[C@@H](C)C(=O)[C@H](C)[C@@H](O)[C@]1(C)O` [Clarithromycin, reference compound], for which the MIC in test [1] and in test [2] was 2 µg/mL (≈ 2.67 µM) throughout. For the same molecule, the “survival after 6 days” value in the test with AB5075 (clarithromycin alone at 25 mg/kg) is recorded as 1%. The “MIC (μg/mL) of the antibiotic” value in the test on A. baumannii strain 3785 is 64 µg/mL; in the test on A. baumannii strain 3806, 16 µg/mL; in the test with A. baumannii strain 4025, 64 µg/mL; with A. baumannii strain 4026, 64 µg/mL; in the test on A. baumannii strain 4027, 64 µg/mL; with A. baumannii strain 4498 it was 64 µg/mL. Moreover, the “MIC (μg/mL) of the antibiotic” value was found to be 64 µg/mL in the test with A. baumannii strain 4857, 64 µg/mL with A. baumannii strain 5197, 64 µg/mL with A. baumannii strain 5711 and 16 µg/mL in the test on A. baumannii strain 8967.

Consider `CN[C@H](CC(C)C)C(=O)N[C@H]1C(=O)N[C@@H](CC(N)=O)C(=O)N[C@H]2C(=O)N[C@H]3C(=O)N[C@H](C(=O)N[C@H](C(=O)O)c4cc(O)cc(O)c4-c4cc3ccc4O)[C@H](O)c3ccc(c(Cl)c3)Oc3cc2cc(c3O[C@@H]2O[C@H](CO)[C@@H](O)[C@H](O)[C@H]2O[C@H]2C[C@](C)(N)[C@H](O)[C@H](C)O2)Oc2ccc(cc2Cl)[C@H]1O` [Vancomycin, reference compound], for which the MIC in test [3] was 256 µg/mL; in test [1] it was 64 µg/mL (≈ 44.2 µM); in test [2], 64 µg/mL (≈ 44.2 µM). The “MIC (μg/mL) of the antibiotic” value was 256 µg/mL with A. baumannii strain 3560; 512 µg/mL with A. baumannii strain 3785; 256 µg/mL in the test with A. baumannii strain 3806; 256 µg/mL with A. baumannii strain 3927; 512 µg/mL in the test with A. baumannii strain 4025; 512 µg/mL in the test with A. baumannii strain 4026. In addition, the “MIC (μg/mL) of the antibiotic” value was 512 µg/mL in the test with A. baumannii strain 4027; above 512 µg/mL in the test with A. baumannii strain 4052; 512 µg/mL in the test with A. baumannii strain 4269; 512 µg/mL in the test on A. baumannii strain 4448; 512 µg/mL in the test on A. baumannii strain 4456; 256 µg/mL with A. baumannii strain 4490. The “MIC (μg/mL) of the antibiotic” value in the test with A. baumannii strain 4498 was 512 µg/mL; in the test with A. baumannii strain 4795, above 512 µg/mL; with A. baumannii strain 4878, 512 µg/mL; in the test with A. baumannii strain 4957, 512 µg/mL; in the test on A. baumannii strain 4991, 512 µg/mL; with A. baumannii strain 5001, 512 µg/mL. In addition, the “MIC (μg/mL) of the antibiotic” value in the test on A. baumannii strain 5197 is 512 µg/mL; with A. baumannii strain 5256, 512 µg/mL; in the test with A. baumannii strain 5711, above 512 µg/mL; in the test with A. baumannii strain 8967, 512 µg/mL.

Regarding `CO[C@H]1/C=C/O[C@@]2(C)Oc3c(C)c(O)c4c(O)c(c(/C=N/N5CCN(C)CC5)c(O)c4c3C2=O)NC(=O)/C(C)=C\C=C\[C@H](C)[C@H](O)[C@@H](C)[C@@H](O)[C@@H](C)[C@H](OC(C)=O)[C@@H]1C` [rifampin, reference compound], the “survival after 6 days” value in the test on AB5075 (rifampin at 30 mg/kg, one injection) is reported as 64%.
